Results taken from patent publication US20230348987A1, “METHODS AND COMPOSITIONS FOR TREATING CANCER” (PROMETTRE RESEARCH PTY LTD, priority 2020, published 2023).
Entries after “also recorded” stand apart in the source; their conditions may differ.

What was measured:
[1] = test system: HSP105, HSP70, pHER2, total HER2 and EGR4-S expression; test: Western blot after treatment with cell stress activating compounds (FIG. 4E); assay type: cell-based
Description: The MCF10A cell line was obtained from the A.T.C.C. (Manassas, VA, U.S.A.) and cultured as described previously (Debnath et al., 2003). T47D cells, SkBr3 cells, Hs578T and HEK-293T cells were cultured as described by Nguyen et al (2013). MDA-361, ZR75-1, BT-474, MDA-453, MDA-468, MDA-231, BT549 and MCF7 cells were cultured in Dulbecco's Modified Eagle's medium supplemented with 10% (v/v) fetal bovine serum and 1% (w/v) penicillin/streptomycin. In addition, MCF7 growth media was supplemented with 10 ng/ml insulin. All stable cell lines were generated by retroviral or lentiviral transduction as per Debnath et al. (2003). Viral stocks were generated by transient transfection of appropriate viral packaging vectors into the HEK-293T cell line as described by Lang and colleagues (2012). Drugs/compounds used for treating the cells were purchased from commercial sources, including Lapatinib, Erlotinib, Gefinitib and AUY922 from Sigma, and Sulfurophane from Santa Cruz Biotechnology. HSF1-targeted shRNAmir (microRNA-adapted short hairpin RNA) vectors were constructed as described previously (Lang et al., 2012). EGR4-targeted shRNAmir were purchased from Millenium Science.
(§1) Generation of protein lysates from cells was performed according to a previously published protocol (Price et al., 2005). Equal concentrations of protein lysates were combined with loading buffer (Invitrogen) and sample reducing agent (Invitrogen), denatured for 5 minutes at 95° C. then separated through gel electrophoresis in a 4-to-12% Bis-Tris NuPAGE gel (Invitrogen) with 1×MES buffer (Invitrogen) and antioxidant (Invitrogen). Following separation, the proteins were electrophoretically transferred onto nitrocellulose membranes using the iBlot western detection stack/iBlot dry blotting system (Thermofisher) for seven minutes at 23V. All membranes were then processed at room temperature overnight using the […] (Thermofisher) containing primary antibodies, iBind wash solution and horseradish peroxidase-conjugated secondary antibodies. Blots were developed using Clarity Western ECL (Bio-RAD), and images were captured using a Fusion FX imaging machine (Vilber). All antibodies were purchased from commercial sources and included, anti-HSF1 (catalogue number SPA-901), anti-HSP27 (catalogue number SPA-800) and anti-HSP90a (catalogue number SPA-835) antibodies from Enzo Life Sciences; anti-HSP105/110 (catalogue number Sc-6241) antibody from Santa Cruz Biotechnology; anti-Ha-Ras (catalogue number 05-775) antibody from Merck Millipore; anti-actin (catalogue number MS-1295-P0) and anti-HSP70i (catalogue number MS-482-P0) antibodies from Thermo Scientific; anti-p53 (catalogue number 51-9002046) from BD Pharmingen; anti-pHER2/ErbB2 (catalogue number Ab53290), anti-pAkt (catalogue number MISCGENLAB), anti-pEGFR catalogue number SCZSC-12351), anti-total EGFR catalogue number SCZSC-120) from Abcam, anti-total Akt (catalogue number 9272) and anti-HER2/ErbB2 (catalogue number Ab134182) from Cell Signalling, anti-EGR4 (catalogue number AV38090) (Sigma), anti-EGR4 (catalogue number PA5-50496) (Thermofisher), and anti-EGR4 (catalogue number SC133540) (Santa Cruz).

[2] = test system: HER signalling pathway (pHER2, pAKT, EGR4-S) in HER2+ breast cancer cells; settings: for EGR4-S expression: increasing drug concentrations, FIG. 3
Description: Generation of protein lysates from cells was performed according to a previously published protocol (Price et al., 2005). Equal concentrations of protein lysates were combined with loading buffer (Invitrogen) and sample reducing agent (Invitrogen), denatured for 5 minutes at 95° C. then separated through gel electrophoresis in a 4-to-12% Bis-Tris NuPAGE gel (Invitrogen) with 1×MES buffer (Invitrogen) and antioxidant (Invitrogen). Following separation, the proteins were electrophoretically transferred onto nitrocellulose membranes using the iBlot western detection stack/iBlot dry blotting system (Thermofisher) for seven minutes at 23V. All membranes were then processed at room temperature overnight using the iBlot Western system (Thermofisher) containing primary antibodies, iBind wash solution and horseradish peroxidase-conjugated secondary antibodies. Blots were developed using Clarity Western ECL (Bio-RAD), and images were captured using a Fusion FX imaging machine (Vilber).
The effect of modulators that target the HER signalling pathway (TKIs such as Lapatinib, Gefitinib and Erlotinib) on EGR4-S expression was examined.

[3] = test system: EGR4-S in HER2+ breast cancer cells (SKBR3); test: EGR4-S expression in cells cultured in increasing Lapatinib concentrations over 7 weeks (FIG. 12); assay type: cell-based
Description: as §1
The cell line was cultured in increasing concentrations of Lapatinib over the course of seven weeks to investigate whether EGR4-S expression would be affected during prolonged treatment with Lapatinib.

[4] = test system: EGR4-S in HER2+ cells; test: Lapatinib treatment of HER2+ cells with elevated or lowered HSF1 (FIG. 15A/B); assay type: cell-based
Description: as §1

In the case of `CCNC(=O)c1noc(-c2cc(C(C)C)c(O)cc2O)c1-c1ccc(CN2CCOCC2)cc1` [AUY922], the EGR4-S expression ([1]; higher concentrations) is reported as “decreased; also recorded: reducing EGR4-S expression”, the HSP105 expression ([1]; higher concentrations) is reported as “increased” and the pHER2 expression ([1]; higher concentrations) is reported as “decreased”. The “total HER2 expression” value ([1]; higher concentrations) was “decreased”.

`C#Cc1cccc(Nc2ncnc3cc(OCCOC)c(OCCOC)cc23)c1` [Erlotinib] was tested, and the EGR4-S expression [2] was “regulated”.

For `COc1cc2ncnc(Nc3ccc(F)c(Cl)c3)c2cc1OCCCN1CCOCC1` [Gefitinib], the EGR4-S expression [2] was “regulated”.

`CS(=O)(=O)CCNCc1ccc(-c2ccc3ncnc(Nc4ccc(OCc5cccc(F)c5)c(Cl)c4)c3c2)o1` [Lapatinib] was tested, and the “EGR4-S expression over time” value ([2]; different types of HER2+ breast cancer cells, FIG. 3B) was “maintained over time”, the EGR4-S expression [2] was “regulated” and the EGR4-S expression ([3]; SKBR3, week 5, 300 nM Lapatinib, vs control) was “less EGR4-S compared to the control”. For the same compound, the EGR4-S expression ([3]; SKBR3, week 7, 600 nM Lapatinib) was “returning to control levels”, the EGR4-S expression ([3]; after 3 weeks of treatment, vs untreated control) was “reduced levels of EGR4-S” and the EGR4-S expression ([3]; prolonged treatment, vs untreated control cells) was “unchanged”. The EGR4-S expression ([4]; HER2+ cells, dose-dependent, FIG. 15A) was “reduced EGR4-S expression in a dose-dependent manner”, the “response of EGR4-S expression” value ([4]; HSF1 levels lowered, equivalent doses, FIG. 15B) was “did not respond as readily” and the “reduction of EGR4-S expression” value ([4]; with elevated HSF1, FIG. 15A) was “more pronounced”.

For `C[S+]([O-])CCCCN=C=S` (stereo not shown) [Sulfurophane, Sulforaphane], the HSP70 expression ([1]; greater treatment concentrations) was “increased”, the EGR4-S expression ([1]; higher concentrations) was “reductions” and the pHER2 expression ([1]; higher concentrations) was “reductions”. For the same compound, the EGR4-S expression ([1]; higher concentrations, listed as Sulforaphane) was “reducing EGR4-S expression”.
